Laboratory results reported in patent US20240277798A1, “CYCLOSPORINE COMPOSITIONS AND METHODS OF USE” (Bacainn Biotherapeutics, Ltd., priority 2021, published 2024).

Tested on: human neutrophils
Experiment: PMN transmigration assay (Salmonella typhimurium-infected T84 monolayer, HXA3/MRP2-driven neutrophil migration, MPO readout)
Assay type: cell-based
Details: dose of 100 nM, result in words
Procedure: PMN transmigration assay. T84 colorectal cancer cells were grown to confluence on the bottom side of 12 well polycarbonate membrane inserts of a 24 well Transwell® plate. The confluent growth of these epithelial cells results in physiologically-relevant apical (luminal) and basolateral surfaces in the transwells. […] The monolayer was then infected on the apical surface with Salmonella typhimurium for 2 hours to induce hepoxilin A3 (HXA3) efflux through the MRP2 membrane protein and into the apical chamber. […] Freshly isolated and prepared human neutrophils were then added to the basolateral side and allowed to transmigrate through the monolayer for 2 hours. The number of neutrophils migrated to the apical chamber (due to the HXA3 gradient) was then assayed by determination of myeloperoxidase activity (a neutrophil biomarker). Inhibition of transmigration is indicated by lower MPO activity in the apical chamber.

Row | Structure (SMILES) | inhibition of neutrophil migration
1 | CC[C@@H]1NC(=O)[C@H]([C@H](O)[C@H](C)CCCCC(=O)O)N(C)C(=O)[C@H](C(C)C)N(C)C(=O)[C@H](CC(C)C)N(C)C(=O)[C@H](CC(C)C)N(C)C(=O)[C@@H](C)NC(=O)[C@H](C)NC(=O)[C@H](CC(C)C)N(C)C(=O)[C@H](C(C)C)NC(=O)[C@H](CC(C)C)N(C)C(=O)CN(C)C1=O [BT122] | exhibit inhibition
2 | CC[C@@H]1NC(=O)[C@H]([C@H](O)[C@H](C)CCCCCCC(=O)O)N(C)C(=O)[C@H](C(C)C)N(C)C(=O)[C@H](CC(C)C)N(C)C(=O)[C@H](CC(C)C)N(C)C(=O)[C@@H](C)NC(=O)[C@H](C)NC(=O)[C@H](CC(C)C)N(C)C(=O)[C@H](C(C)C)NC(=O)[C@H](CC(C)C)N(C)C(=O)CN(C)C1=O [BT125] | exhibit inhibition
